From US20260183295A1, “METHODS AND COMPOSITIONS FOR TREATING CANCER” (Onconova Therapeutics, Inc., priority 2022, published 2026)

How the values were obtained:
[1] = target: T1, AAK1 (Homo sapiens, UniProt Q2M2I8); assay: CETSA-MS, MDA-MB-231 cell lysates; assay type: binding; conditions: 2 μM and 20 μM
T1 construct: endogenous in cells; host or cells: MDA-MB-231
Description: (§1) Following treatment, cell lysates were thermally treated in a thermal gradient profile across a temperature range. Following the thermal shift, cell lysates were spun by centrifuge to pellet aggregate protein and the supernatant withdrawn. The supernatant was then denatured in buffer and heated to denature, reduce, and alkylate the supernatant proteins. Following heating and cooling to room temperature, cold acetone was added to the supernatant samples and proteins precipitated.
(§2) The intact cell protein samples and lysate protein samples were then digested and labeled for mass spectrometry analysis according to the manufacturer's recommended protocols. Digested and labeled protein samples were analyzed by mass spectrometry proteomic analysis and the resulting protein targets were analyzed and plotted.

[2] = target: T2, AURKA (Homo sapiens, UniProt O14965); assay: CETSA-MS, MDA-MB-231 cell lysates; assay type: binding; conditions: 2 μM and 20 μM
T2 construct: endogenous in cells; host or cells: MDA-MB-231
Description: as §1, §2

[3] = target: T3, BMP2K (Homo sapiens, UniProt Q9NSY1); assay: CETSA-MS, MDA-MB-231 cell lysates; assay type: binding; conditions: 2 μM and 20 μM
T3 construct: endogenous in cells; host or cells: MDA-MB-231
T3 sequence (Q9NSY1 whole entry): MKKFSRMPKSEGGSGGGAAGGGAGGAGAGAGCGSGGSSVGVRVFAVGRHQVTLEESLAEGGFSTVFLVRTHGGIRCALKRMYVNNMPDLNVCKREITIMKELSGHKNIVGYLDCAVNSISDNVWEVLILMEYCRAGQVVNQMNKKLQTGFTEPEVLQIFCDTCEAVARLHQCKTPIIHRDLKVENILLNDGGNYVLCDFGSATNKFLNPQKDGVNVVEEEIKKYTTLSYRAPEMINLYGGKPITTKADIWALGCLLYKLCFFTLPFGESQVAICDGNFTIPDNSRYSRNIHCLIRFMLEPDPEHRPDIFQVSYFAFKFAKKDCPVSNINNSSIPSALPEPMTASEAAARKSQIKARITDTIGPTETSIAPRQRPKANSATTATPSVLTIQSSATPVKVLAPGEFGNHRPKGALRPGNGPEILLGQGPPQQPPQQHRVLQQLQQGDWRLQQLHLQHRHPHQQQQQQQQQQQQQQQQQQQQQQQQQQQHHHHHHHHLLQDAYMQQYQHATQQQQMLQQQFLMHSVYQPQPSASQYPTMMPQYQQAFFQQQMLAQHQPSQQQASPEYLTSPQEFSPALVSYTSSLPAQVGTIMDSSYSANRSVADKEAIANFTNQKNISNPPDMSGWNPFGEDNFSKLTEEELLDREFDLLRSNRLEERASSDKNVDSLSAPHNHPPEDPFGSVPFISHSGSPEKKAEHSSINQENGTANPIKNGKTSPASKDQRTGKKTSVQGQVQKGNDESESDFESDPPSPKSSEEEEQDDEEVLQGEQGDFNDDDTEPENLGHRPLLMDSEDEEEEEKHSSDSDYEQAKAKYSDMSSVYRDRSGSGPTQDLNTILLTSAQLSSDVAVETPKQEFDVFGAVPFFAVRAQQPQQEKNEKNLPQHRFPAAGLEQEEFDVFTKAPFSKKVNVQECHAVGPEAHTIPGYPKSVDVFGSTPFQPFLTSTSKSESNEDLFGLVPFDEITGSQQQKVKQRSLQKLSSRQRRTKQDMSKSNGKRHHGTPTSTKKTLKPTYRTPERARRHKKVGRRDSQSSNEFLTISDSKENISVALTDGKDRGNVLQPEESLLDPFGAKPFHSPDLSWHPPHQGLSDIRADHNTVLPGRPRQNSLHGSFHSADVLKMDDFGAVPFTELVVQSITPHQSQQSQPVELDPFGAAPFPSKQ
Description: as §1, §2

[4] = target: T4, CHEK1 (Homo sapiens, UniProt O14757); assay: CETSA-MS, MDA-MB-231 cell lysates; assay type: binding; conditions: 2 μM and 20 μM
T4 construct: endogenous in cells; host or cells: MDA-MB-231
T4 sequence (O14757 1-476): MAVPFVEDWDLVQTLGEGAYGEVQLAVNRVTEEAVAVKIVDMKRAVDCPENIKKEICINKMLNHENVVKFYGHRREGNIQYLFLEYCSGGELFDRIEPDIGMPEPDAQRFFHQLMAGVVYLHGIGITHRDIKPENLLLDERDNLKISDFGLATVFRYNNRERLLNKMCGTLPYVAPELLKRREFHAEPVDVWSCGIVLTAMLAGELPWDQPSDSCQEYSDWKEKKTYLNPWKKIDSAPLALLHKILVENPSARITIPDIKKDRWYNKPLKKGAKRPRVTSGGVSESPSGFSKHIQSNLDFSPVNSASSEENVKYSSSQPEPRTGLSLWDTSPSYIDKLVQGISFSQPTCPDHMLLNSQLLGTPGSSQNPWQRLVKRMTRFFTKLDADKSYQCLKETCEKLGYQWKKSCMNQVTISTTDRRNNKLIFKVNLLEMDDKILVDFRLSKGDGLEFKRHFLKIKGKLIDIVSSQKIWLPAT
Description: as §1, §2

[5] = target: T5, CPQ (Homo sapiens, UniProt Q9Y646); assay: CETSA-MS, MDA-MB-231 cell lysates; assay type: binding; conditions: 2 μM and 20 μM
T5 construct: endogenous in cells; host or cells: MDA-MB-231
Description: as §1, §2

[6] = target: T6, DGCR6 (Homo sapiens, UniProt Q14129); assay: CETSA-MS, MDA-MB-231 cell lysates; assay type: binding; conditions: 2 μM and 20 μM
T6 construct: endogenous in cells; host or cells: MDA-MB-231
Description: as §1, §2

[7] = target: T7, EPHA2 (Homo sapiens, UniProt P29317); assay: CETSA-MS, MDA-MB-231 cell lysates; assay type: binding; conditions: 2 μM and 20 μM
T7 construct: endogenous in cells; host or cells: MDA-MB-231
T7 sequence (P29317 24-976): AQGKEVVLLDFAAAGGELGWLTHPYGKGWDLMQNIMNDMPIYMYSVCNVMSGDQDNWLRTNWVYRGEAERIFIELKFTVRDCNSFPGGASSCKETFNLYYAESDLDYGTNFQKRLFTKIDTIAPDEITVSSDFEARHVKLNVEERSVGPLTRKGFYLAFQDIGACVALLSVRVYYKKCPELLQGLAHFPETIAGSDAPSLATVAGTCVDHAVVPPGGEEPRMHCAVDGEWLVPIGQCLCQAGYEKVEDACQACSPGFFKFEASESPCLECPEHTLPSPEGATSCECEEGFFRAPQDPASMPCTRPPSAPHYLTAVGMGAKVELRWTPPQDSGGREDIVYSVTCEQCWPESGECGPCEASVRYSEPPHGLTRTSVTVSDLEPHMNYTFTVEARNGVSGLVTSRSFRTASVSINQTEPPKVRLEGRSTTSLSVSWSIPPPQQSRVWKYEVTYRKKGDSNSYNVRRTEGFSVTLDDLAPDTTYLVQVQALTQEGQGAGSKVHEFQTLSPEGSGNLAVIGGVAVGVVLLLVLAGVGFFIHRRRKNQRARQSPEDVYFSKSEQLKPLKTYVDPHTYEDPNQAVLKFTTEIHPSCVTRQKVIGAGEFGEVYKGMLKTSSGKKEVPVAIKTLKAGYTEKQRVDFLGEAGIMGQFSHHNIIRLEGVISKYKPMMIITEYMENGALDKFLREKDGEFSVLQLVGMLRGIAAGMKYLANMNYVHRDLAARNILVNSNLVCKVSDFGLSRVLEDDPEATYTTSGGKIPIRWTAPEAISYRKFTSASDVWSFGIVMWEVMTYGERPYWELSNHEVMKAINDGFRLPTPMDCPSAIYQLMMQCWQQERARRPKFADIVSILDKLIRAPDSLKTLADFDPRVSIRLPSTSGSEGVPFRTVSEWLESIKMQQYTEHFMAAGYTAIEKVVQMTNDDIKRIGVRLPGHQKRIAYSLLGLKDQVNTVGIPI
Description: as §1, §2

[8] = target: T8, FKBP8 (Homo sapiens, UniProt Q14318); assay: CETSA-MS, MDA-MB-231 cell lysates; assay type: binding; conditions: 2 μM and 20 μM
T8 construct: endogenous in cells; host or cells: MDA-MB-231
Description: as §1, §2

[9] = target: T9, GSK3A (Homo sapiens, UniProt P49840); assay: CETSA-MS, MDA-MB-231 cell lysates; assay type: binding; conditions: 2 μM and 20 μM
T9 construct: endogenous in cells; host or cells: MDA-MB-231
T9 sequence (P49840 whole entry): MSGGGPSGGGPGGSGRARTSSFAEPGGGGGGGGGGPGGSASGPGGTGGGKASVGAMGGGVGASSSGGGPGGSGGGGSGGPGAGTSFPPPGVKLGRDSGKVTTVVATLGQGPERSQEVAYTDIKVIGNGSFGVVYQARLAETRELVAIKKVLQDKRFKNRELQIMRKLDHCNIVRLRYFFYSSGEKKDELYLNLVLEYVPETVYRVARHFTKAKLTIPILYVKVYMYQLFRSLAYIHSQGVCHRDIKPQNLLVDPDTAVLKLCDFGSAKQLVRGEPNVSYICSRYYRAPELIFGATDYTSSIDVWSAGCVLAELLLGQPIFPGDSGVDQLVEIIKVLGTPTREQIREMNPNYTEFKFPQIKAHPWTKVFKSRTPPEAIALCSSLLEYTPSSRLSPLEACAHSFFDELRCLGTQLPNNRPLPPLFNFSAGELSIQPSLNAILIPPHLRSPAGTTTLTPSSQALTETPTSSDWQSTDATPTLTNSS
Description: as §1, §2

[10] = target: T10, MAP11 (Homo sapiens, UniProt Q8WVR3); assay: CETSA-MS, MDA-MB-231 cell lysates; assay type: binding; conditions: 2 μM and 20 μM
T10 construct: endogenous in cells; host or cells: MDA-MB-231
T10 sequence (Q8WVR3 whole entry): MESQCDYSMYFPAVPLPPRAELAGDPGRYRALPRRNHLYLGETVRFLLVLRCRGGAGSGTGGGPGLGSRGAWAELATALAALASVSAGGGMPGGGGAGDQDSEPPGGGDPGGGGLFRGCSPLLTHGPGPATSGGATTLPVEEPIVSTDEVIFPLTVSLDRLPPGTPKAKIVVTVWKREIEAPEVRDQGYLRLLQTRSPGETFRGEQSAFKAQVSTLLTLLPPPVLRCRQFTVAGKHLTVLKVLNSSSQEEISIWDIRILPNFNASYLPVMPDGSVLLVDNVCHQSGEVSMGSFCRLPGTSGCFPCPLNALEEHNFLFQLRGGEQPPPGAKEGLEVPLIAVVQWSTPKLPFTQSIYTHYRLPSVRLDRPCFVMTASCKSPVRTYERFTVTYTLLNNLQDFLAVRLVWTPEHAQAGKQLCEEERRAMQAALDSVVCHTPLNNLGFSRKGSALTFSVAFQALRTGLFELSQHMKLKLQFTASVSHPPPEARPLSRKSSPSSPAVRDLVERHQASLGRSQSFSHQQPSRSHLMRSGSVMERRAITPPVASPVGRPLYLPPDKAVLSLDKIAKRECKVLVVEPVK
Description: as §1, §2

[11] = target: T11, STK17A (Homo sapiens, UniProt Q9UEE5); assay: CETSA-MS, MDA-MB-231 cell lysates; assay type: binding; conditions: 2 μM and 20 μM
T11 construct: endogenous in cells; host or cells: MDA-MB-231
T11 sequence (Q9UEE5 whole entry): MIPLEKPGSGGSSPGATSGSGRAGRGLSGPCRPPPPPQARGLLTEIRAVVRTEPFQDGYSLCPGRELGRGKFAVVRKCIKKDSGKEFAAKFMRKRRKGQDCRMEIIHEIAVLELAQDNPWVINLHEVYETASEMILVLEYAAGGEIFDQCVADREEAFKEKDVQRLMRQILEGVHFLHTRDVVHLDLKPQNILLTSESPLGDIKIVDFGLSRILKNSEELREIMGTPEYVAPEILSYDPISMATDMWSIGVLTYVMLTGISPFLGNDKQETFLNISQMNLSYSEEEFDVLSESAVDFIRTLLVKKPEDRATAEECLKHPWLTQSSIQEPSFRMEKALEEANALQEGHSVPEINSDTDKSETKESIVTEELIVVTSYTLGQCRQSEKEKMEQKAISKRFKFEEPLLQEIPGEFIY
Description: as §1, §2

[12] = target: T12, TFEB (Homo sapiens, UniProt P19484); assay: CETSA-MS, MDA-MB-231 cell lysates; assay type: binding; conditions: 2 μM and 20 μM
T12 construct: endogenous in cells; host or cells: MDA-MB-231
Description: as §1, §2

[13] = target: T13, TGFBR2 (Homo sapiens, UniProt P37173); assay: CETSA-MS, MDA-MB-231 cell lysates; assay type: binding; conditions: 2 μM and 20 μM
T13 construct: endogenous in cells; host or cells: MDA-MB-231
Description: as §1, §2

[14] = target: T14, UVSSA (Homo sapiens, UniProt Q2YD98); assay: CETSA-MS, MDA-MB-231 cell lysates; assay type: binding; conditions: 2 μM and 20 μM
T14 construct: endogenous in cells; host or cells: MDA-MB-231
Description: as §1, §2

[15] = target: T15, ZCRB1 (Homo sapiens, UniProt Q8TBF4); assay: CETSA-MS, MDA-MB-231 cell lysates; assay type: binding; conditions: 2 μM and 20 μM
T15 construct: endogenous in cells; host or cells: MDA-MB-231
Description: as §1, §2

[16] = target: T16, ZNF260 (Homo sapiens, UniProt Q3ZCT1); assay: CETSA-MS, MDA-MB-231 cell lysates; assay type: binding; conditions: 2 μM and 20 μM
T16 construct: endogenous in cells; host or cells: MDA-MB-231
Description: as §1, §2

[17] = target: T1, AAK1; assay: CETSA-MS, MDA-MB-231 cell lysates and intact cells; assay type: cell-based; conditions: present in both MDA-MB-231 cell lysates and intact cells
Description: as §1
(§3) TNBC MDA-MB-231 cells were grown at 37° C. in 5% CO2 and suspended in warm media and split into 4 equal volumes. […] Cells were incubated and then pelleted. Following pelleting, the cells were washed, resuspended, and heated in a thermal gradient. Following heating, the samples were flash frozen and lysed in lysis buffer, agitated by vortex, and sonicated prior to centrifugation. The supernatant was collected and denaturation buffer added. Cold acetone was then added to the cell samples, and protein collected by centrifugation. Pellets were then washed twice with cold acetone and the washed pellets prior to labeling.
as §2

[18] = target: T3, BMP2K; assay: CETSA-MS, MDA-MB-231 cell lysates and intact cells; assay type: cell-based; conditions: present in both MDA-MB-231 cell lysates and intact cells
Description: as §1, §3, §2

[19] = target: T4, CHEK1; assay: CETSA-MS, MDA-MB-231 cell lysates and intact cells; assay type: cell-based; conditions: present in both MDA-MB-231 cell lysates and intact cells
Description: as §1, §3, §2

[20] = target: T9, GSK3A; assay: CETSA-MS, MDA-MB-231 cell lysates and intact cells; assay type: cell-based; conditions: present in both MDA-MB-231 cell lysates and intact cells
Description: as §1, §3, §2

[21] = target: T17, GSK3B (Homo sapiens, UniProt P49841); assay: CETSA-MS, MDA-MB-231 cell lysates and intact cells; assay type: cell-based; conditions: present in both MDA-MB-231 cell lysates and intact cells
T17 construct: endogenous in cells; host or cells: MDA-MB-231
T17 sequence (P49841 whole entry): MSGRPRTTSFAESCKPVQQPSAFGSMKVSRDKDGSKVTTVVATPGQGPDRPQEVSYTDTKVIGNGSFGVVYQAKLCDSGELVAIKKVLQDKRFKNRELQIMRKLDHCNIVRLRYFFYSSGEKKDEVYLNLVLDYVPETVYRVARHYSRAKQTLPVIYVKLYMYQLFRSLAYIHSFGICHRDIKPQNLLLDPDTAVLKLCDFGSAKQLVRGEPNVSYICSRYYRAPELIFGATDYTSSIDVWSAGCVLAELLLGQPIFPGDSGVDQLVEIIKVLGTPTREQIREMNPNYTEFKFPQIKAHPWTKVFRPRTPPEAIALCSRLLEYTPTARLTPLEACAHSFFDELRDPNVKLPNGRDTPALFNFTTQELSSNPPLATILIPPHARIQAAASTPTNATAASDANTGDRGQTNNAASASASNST
Description: as §1, §3, §2

[22] = test system: T-47D, HCC-1937, HS-578T, BT-474, MDA-MB-468, and MD-MB-453 cell lines; assay: MTT cell viability of breast cancer cell line panel versus comparators, 48 hrs (FIG. 17); assay type: cell-based
[23] = test system: Cyclin D1; assay: Western blot, MDA-MB-231 cells, 24 hours; assay type: cell-based; conditions: 2.5, 5, 10 μM, versus Comparator 1, 2 and 4
[24] = test system: Caspase 3/7; assay: Caspase 3/7 Glo assay, MDA-MB-231 cells, 24 hours; assay type: cell-based
Description: To determine how Compound 1 induces cell death, Caspase 3/7 activity was measured using the Caspase 3/7 Glo assay.
The effect of zVAD-FMK treatment on Caspase 3/7 activity was assessed.

[25] = target: CDK4/cyclin D1 (Homo sapiens, UniProt P11802); assay: CDK4/cyclin D1 CETSA; assay type: cell-based; set-up: endogenous in cells; host or cells: MDA-MB-231 (lysates and intact cells)
Description: as §1
as §3, with “Pellets were then washed twice with cold acetone and the washed pellets prior to labeling.” left out
as §2

T1 sequence (Q2M2I8 whole entry): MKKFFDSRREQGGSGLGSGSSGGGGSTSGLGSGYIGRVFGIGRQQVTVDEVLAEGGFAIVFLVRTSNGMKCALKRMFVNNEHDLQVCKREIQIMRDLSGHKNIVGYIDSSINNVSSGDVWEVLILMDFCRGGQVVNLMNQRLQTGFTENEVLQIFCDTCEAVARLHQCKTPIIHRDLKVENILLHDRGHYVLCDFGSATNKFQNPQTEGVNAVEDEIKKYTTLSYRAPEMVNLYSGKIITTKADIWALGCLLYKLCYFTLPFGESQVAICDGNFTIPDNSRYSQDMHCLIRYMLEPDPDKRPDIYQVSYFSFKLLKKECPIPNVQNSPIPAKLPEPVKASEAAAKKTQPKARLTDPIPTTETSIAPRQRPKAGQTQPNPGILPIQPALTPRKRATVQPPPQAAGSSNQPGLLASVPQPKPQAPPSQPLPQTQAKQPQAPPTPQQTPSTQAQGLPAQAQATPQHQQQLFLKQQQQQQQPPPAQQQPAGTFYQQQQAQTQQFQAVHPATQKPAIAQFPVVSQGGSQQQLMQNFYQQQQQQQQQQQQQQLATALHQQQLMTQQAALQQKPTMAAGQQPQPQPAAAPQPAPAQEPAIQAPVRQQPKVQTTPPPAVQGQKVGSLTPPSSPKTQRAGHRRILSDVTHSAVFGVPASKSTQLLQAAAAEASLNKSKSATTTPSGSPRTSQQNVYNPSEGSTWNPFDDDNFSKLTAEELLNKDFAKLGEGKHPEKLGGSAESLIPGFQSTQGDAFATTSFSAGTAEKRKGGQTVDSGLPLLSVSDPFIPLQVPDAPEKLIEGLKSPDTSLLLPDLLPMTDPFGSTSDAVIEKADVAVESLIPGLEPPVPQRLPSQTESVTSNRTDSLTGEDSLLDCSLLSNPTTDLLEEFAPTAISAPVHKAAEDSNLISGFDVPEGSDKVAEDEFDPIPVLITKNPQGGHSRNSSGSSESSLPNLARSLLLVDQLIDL

CN1CCN(c2ccc(Nc3ncc4cc(C#N)c(=O)n(C5CCCC5)c4n3)cc2)CC1 [Compound 1, 8-cyclopentyl-2-((4-(4-methylpiperazin-1-yl)phenyl)amino)-7-oxo-7,8-dihydropyrido[2,3-d]pyrimidine-6-carbonitrile]
Group (CETSA-MS thermal shift) [1]: Stabilization | Group (CETSA-MS thermal shift) [2]: Stabilization | Group (CETSA-MS thermal shift) [3]: Stabilization | Group (CETSA-MS thermal shift) [4]: Destabilization | Group (CETSA-MS thermal shift) [5]: Stabilization | Group (CETSA-MS thermal shift) [6]: Destabilization | Group (CETSA-MS thermal shift) [7]: Stabilization | Group (CETSA-MS thermal shift) [8]: Stabilization | Group (CETSA-MS thermal shift) [9]: Stabilization | Group (CETSA-MS thermal shift) [10]: Stabilization | Group (CETSA-MS thermal shift) [11]: Stabilization | Group (CETSA-MS thermal shift) [12]: Stabilization | Group (CETSA-MS thermal shift) [13]: Stabilization | Group (CETSA-MS thermal shift) [14]: Destabilization | Group (CETSA-MS thermal shift) [15]: Stabilization | Group (CETSA-MS thermal shift) [16]: Destabilization | Group (CETSA-MS thermal shift) [17]: Stabilization | Group (CETSA-MS thermal shift) [18]: Stabilization | Group (CETSA-MS thermal shift) [19]: Destabilization | Group (CETSA-MS thermal shift) [20]: Stabilization | Group (CETSA-MS thermal shift) [21]: Stabilization | dose dependence of cell death (MTT) ([22]; 2.5, 5.0, 10 μM, HCC-1937, Hs-578T, BT-474, MDA-MB-468, MDA-MB-453): dose-dependent effect | cell death (MTT), comparison of treatments ([22]; Comparator 4 10 μM, Comparator 1 and 2 5 μM, Compound 1 2.5, 5.0, 10 μM): greater potency in inducing cell death compared to both Comparator 1 and Comparator 2 | Cyclin D1 levels [23]: decreasing | Caspase 3/7 activity ([24]; Compound 1, Comparator 1, 2 5 μM, Comparator 4 10 μM (FIG. 22)): modest increase | Caspase 3/7 activity ([24]; without zVAD-FMK, relative to DMSO (FIG. 26)): small increase | effect of zVAD-FMK on induced Caspase 3/7 activity ([24]; zVAD-FMK 20 μM (FIG. 26)): inhibited by zVAD-FMK treatment | CETSA [25]: POS
